From the NIST ThermoML archive (doi:10.1016/j.jct.2017.08.028)
± gives the expanded uncertainty stated by the source.

Conditions: Crystal; for molar entropy: 100 kPa, Small (less than 1 g) adiabatic calorimetry; for mass density: 101.33 kPa, X-ray diffraction

O[C@H]1[C@H](O)[C@@H](O)[C@H](O)[C@@H](O)[C@H]1O [cis-1,2,3,5-trans-4,6-cyclohexanehexol]
Conditions | mass density [kg/m3] | molar entropy [J/K/mol]
5 K | – | 0.0237 ± 0.024
6 K | – | 0.0492 ± 0.024
7 K | – | 0.091 ± 0.025
8 K | – | 0.1546 ± 0.026
9 K | – | 0.2451 ± 0.029
10 K | – | 0.3742 ± 0.036
15 K | – | 1.491 ± 0.1
20 K | – | 3.261 ± 0.21
25 K | – | 5.458 ± 0.34
30 K | – | 7.964 ± 0.5
35 K | – | 10.69 ± 0.66
40 K | – | 13.58 ± 0.83
45 K | – | 16.57 ± 0.32
50 K | – | 19.63 ± 0.36
60 K | – | 25.97 ± 0.46
70 K | – | 32.56 ± 0.56
80 K | – | 39.37 ± 0.67
90 K | – | 46.36 ± 0.49
100 K | – | 53.48 ± 0.54
110 K | – | 60.72 ± 0.59
120 K | – | 68.03 ± 0.65
130 K | – | 75.4 ± 0.7
140 K | – | 82.82 ± 0.75
150 K | 1577 ± 6 | 90.26 ± 0.8
160 K | – | 97.71 ± 0.86
170 K | – | 105.2 ± 0.9
175 K | 1574 ± 6 | –
180 K | – | 112.6 ± 1
190 K | – | 120.1 ± 1
200 K | 1574 ± 6 | 127.6 ± 1.1
210 K | – | 135 ± 1.1
220 K | – | 142.4 ± 1.2
225 K | 1575 ± 6 | –
230 K | – | 149.9 ± 1.2
240 K | – | 157.3 ± 1.3
250 K | 1572 ± 6 | 164.8 ± 1.3
260 K | – | 172.2 ± 1.4
270 K | – | 179.6 ± 1.5
273.15 K | – | 182 ± 1.5
275 K | 1570 ± 6 | –
280 K | – | 187.1 ± 1.5
290 K | – | 194.5 ± 1.6
298.15 K | – | 200.6 ± 1.6
300 K | 1569 ± 6 | 202 ± 1.6
310 K | – | 209.4 ± 1.7
320 K | – | 216.9 ± 1.7
325 K | 1569 ± 6 | –
330 K | – | 224.3 ± 1.8
340 K | – | 231.8 ± 1.8
350 K | 1566 ± 6 | –
375 K | 1561 ± 6 | –
400 K | 1559 ± 6 | –
425 K | 1555 ± 6 | –
450 K | 1553 ± 6 | –
